Series [1] is described as follows: Proliferation of exponentially growing Huh-5-2 cells (MTS method). Particulars: human, CC50, concentration required to inhibit the proliferation of exponentially growing Huh-5-2 cells by 50%; Table 2. Summed up:
(§1)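 Huh-5-2 cells carrying the luciferase HCV replicon, seeded 24 h, then exposed to serial compound dilutions without G418 for 72 h at 37° C, 5% CO2. Replication read as luciferase luminescence, expressed as percentage of untreated cultures; culture density measured in parallel by MTS.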

Series [2] has as its system HCV replicon I389luc-ubi-neo/NS3-3'/5.1. The series is described as follows: Anti-HCV replicon assay (luciferase activity) in Huh-5-2 cells. It is filed as cell-based, Hepatitis C virus. Particulars: Hepatitis C virus, Huh-5-2, 72 h, concentration required to inhibit luciferase activity in the replicon system by 50%. A digest of the protocol: as §1
In general terms: Replicon systems follow genome replication, usually without infectious particles.

Structures are written as SMILES. In brackets after ≈: the same amount, converted by molar mass.

The term CC50 denotes the concentration at which the toxic effect on the cells reaches its halfway point. Read a low CC50 as harm at low concentration. The term IC50 denotes the concentration that gives 50% inhibition. Lower therefore signals higher potency.

In series [1], `COCCN1C(=O)c2ccccc2C(C(=O)Nc2ccn(C)n2)C1c1cccs1` (stereo not shown) [C180, 2-(2-methoxyethyl)-N-(1-methyl-1H-pyrazol-3-yl)-1-oxo-3-(thiophen-2-yl)-1,2,3,4-tetrahydroisoquinoline-4-carboxamide] registered a CC50 at 72 h of 80.8 µg/mL (≈ 197 µM). In series [2], this compound gave an IC50 of 34.8 µg/mL (≈ 84.8 µM).
On the same counts, the results for `COCCN1C(=O)c2ccccc2C(C(=O)Nc2ccc(CO)cc2)C1c1cccs1` (stereo not shown) [C181, N-(4-(hydroxymethyl)phenyl)-2-(2-methoxyethyl)-1-oxo-3-(thiophen-2-yl)-1,2,3,4-tetrahydroisoquinoline-4-carboxamide] are 79.9 µg/mL (≈ 183 µM) and 0.25 µg/mL (≈ 0.573 µM).
For `COCCN1C(=O)c2ccccc2C(C(=O)Nc2cc(-c3ccco3)[nH]n2)C1c1cccs1` (stereo not shown) [C183, N-(5-(furan-2-yl)-1H-pyrazol-3-yl)-2-(2-methoxyethyl)-1-oxo-3-(thiophen-2-yl)-1,2,3,4-tetrahydroisoquinoline-4-carboxamide], the CC50 at 72 h in series [1] amounted to 77 µg/mL (≈ 166 µM). Besides, inhibition in series [2] was half-maximal at 50.2 µg/mL (≈ 109 µM) (IC50).
On the same counts, the results for `COCCN1C(=O)c2ccccc2C(C(=O)Nc2cc(C(C)(C)C)[nH]n2)C1c1cccs1` (stereo not shown) [C185, N-(5-tert-butyl-1H-pyrazol-3-yl)-2-(2-methoxyethyl)-1-oxo-3-(thiophen-2-yl)-1,2,3,4-tetrahydroisoquinoline-4-carboxamide] are 19 µg/mL (≈ 42 µM) and 10.4 µg/mL (≈ 23 µM).
The corresponding values for `COCCN1C(=O)c2ccccc2C(C(=O)Nc2ccc3c(c2)COC3)C1c1cccs1` (stereo not shown) [C190, N-(1,3-dihydroisobenzofuran-5-yl)-2-(2-methoxyethyl)-1-oxo-3-(thiophen-2-yl)-1,2,3,4-tetrahydroisoquinoline-4-carboxamide] are 75.9 µg/mL (≈ 169 µM) and 0.14 µg/mL (≈ 0.312 µM).
The corresponding values for `COCCN1C(=O)c2ccccc2C(C(=O)Nc2nc3ccc(F)cc3s2)C1c1cccs1` (stereo not shown) [C199, N-(6-fluorobenzo[d]thiazol-2-yl)-2-(2-methoxyethyl)-1-oxo-3-(thiophen-2-yl)-1,2,3,4-tetrahydroisoquinoline-4-carboxamide] are 5.97 µg/mL (≈ 12.4 µM) and 0.12 µg/mL (≈ 0.249 µM).
As to `COCCN1C(=O)c2ccccc2C(C(=O)Nc2cccc(-n3cncn3)c2)C1c1cccs1` (stereo not shown) [C200, N-(3-(1H-1,2,4-triazol-1-yl)phenyl)-2-(2-methoxyethyl)-1-oxo-3-(thiophen-2-yl)-1,2,3,4-tetrahydroisoquinoline-4-carboxamide], the CC50 at 72 h in series [1] is 59.4 µg/mL (≈ 125 µM). In addition, 0.32 µg/mL (≈ 0.676 µM) corresponded to half-maximal inhibition in series [2] (IC50).
The corresponding values for `COCCN1C(=O)c2ccccc2C(C(=O)Nc2nc3ccc(Cl)cc3s2)C1c1cccs1` (stereo not shown) [C202, N-(6-chlorobenzo[d]thiazol-2-yl)-2-(2-methoxyethyl)-1-oxo-3-(thiophen-2-yl)-1,2,3,4-tetrahydroisoquinoline-4-carboxamide] are 7.89 µg/mL (≈ 15.8 µM) and 0.17 µg/mL (≈ 0.341 µM).
The corresponding values for `COCCN1C(=O)c2ccccc2C(C(=O)Nc2ccc(-c3ccn(C)n3)cc2)C1c1cccs1` (stereo not shown) [C203, 2-(2-methoxyethyl)-N-(4-(1-methyl-1H-pyrazol-3-yl)phenyl)-1-oxo-3-(thiophen-2-yl)-1,2,3,4-tetrahydroisoquinoline-4-carboxamide] are 9.4 µg/mL (≈ 19.3 µM) and 0.019 µg/mL (≈ 0.039 µM).
On the same counts, the results for `COCCN1C(=O)c2ccccc2C(C(=O)Nc2ccc(-c3nnc(C)o3)cc2)C1c1cccs1` (stereo not shown) [C205, 2-(2-methoxyethyl)-N-(4-(5-methyl-1,3,4-oxadiazol-2-yl)phenyl)-1-oxo-3-(thiophen-2-yl)-1,2,3,4-tetrahydroisoquinoline-4-carboxamide] are 38.8 µg/mL (≈ 79.5 µM) and 0.034 µg/mL (≈ 0.0696 µM).
The compound `COCCN1C(=O)c2ccccc2C(C(=O)Nc2ccc3c(c2)CC(=O)N3C)C1c1cccs1` (stereo not shown) [C206, 2-(2-methoxyethyl)-N-(1-methyl-2-oxoindolin-5-yl)-1-oxo-3-(thiophen-2-yl)-1,2,3,4-tetrahydroisoquinoline-4-carboxamide] gave a CC50 at 72 h in series [1] of 52.3 µg/mL (≈ 110 µM). In addition, the half-maximal inhibitory concentration (IC50) in series [2] stood at 3.72 µg/mL (≈ 7.82 µM).
On the same counts, the results for `COCCN1C(=O)c2ccccc2C(C(=O)n2c(=O)oc3ccc(N)cc32)C1c1cccs1` (stereo not shown) [C207, 5-amino-3-(−2-(2-methoxyethyl)-1-oxo-3-(thiophen-2-yl)-1,2,3,4-tetrahydroisoquinoline-4-carbonyl)benzo[d]oxazol-2(3H)-one] are 72.3 µg/mL (≈ 156 µM) and 27.4 µg/mL (≈ 59.2 µM).
On the same counts, the results for `COCCN1C(=O)c2ccccc2C(C(=O)Nc2cc(-c3ccccc3)nn2C)C1c1cccs1` (stereo not shown) [C208, 2-(2-methoxyethyl)-N-(1-methyl-3-phenyl-1H-pyrazol-5-yl)-1-oxo-3-(thiophen-2-yl)-1,2,3,4-tetrahydroisoquinoline-4-carboxamide] are 7.94 µg/mL (≈ 16.3 µM) and 0.39 µg/mL (≈ 0.801 µM).
Turning to `COCCN1C(=O)c2ccccc2C(C(=O)Nc2cc(C(=O)OC)n(C)c2)C1c1cccs1` (stereo not shown) [C209, methyl 4-(2-(2-methoxyethyl)-1-oxo-3-(thiophen-2-yl)-1,2,3,4-tetrahydroisoquinoline-4-carboxamido)-1-methyl-1H-pyrrole-2-carboxylate], the CC50 at 72 h in series [1] is 57.8 µg/mL (≈ 124 µM). The compound further showed an IC50 in series [2] of 0.11 µg/mL (≈ 0.235 µM).
The corresponding values for `COCCN1C(=O)c2ccccc2C(C(=O)Nc2cccc(Cn3ccnc3)c2)C1c1cccs1` (stereo not shown) [C212, N-(3-((1H-imidazol-1-yl)methyl)phenyl)-2-(2-methoxyethyl)-1-oxo-3-(thiophen-2-yl)-1,2,3,4-tetrahydroisoquinoline-4-carboxamide] are 52.6 µg/mL (≈ 108 µM) and 0.16 µg/mL (≈ 0.329 µM).
For `COCCN1C(=O)c2ccccc2C(C(=O)Nc2ccc(C)c(NS(C)(=O)=O)c2)C1c1cccs1` (stereo not shown) [C213, 2-(2-methoxyethyl)-N-(4-methyl-3-(methylsulfonamido)phenyl)-1-oxo-3-(thiophen-2-yl)-1,2,3,4-tetrahydroisoquinoline-4-carboxamide], the CC50 at 72 h in series [1] was more than 100 µg/mL. In series [2], this compound gave an IC50 of 0.036 µg/mL (≈ 0.0701 µM).
The corresponding values for `COCCN1C(=O)c2ccccc2C(C(=O)Nc2ccc(-c3nncn3C)cc2)C1c1cccs1` (stereo not shown) [C214, 2-(2-methoxyethyl)-N-(4-(4-methyl-4H-1,2,4-triazol-3-yl)phenyl)-1-oxo-3-(thiophen-2-yl)-1,2,3,4-tetrahydroisoquinoline-4-carboxamide] are 85.3 µg/mL (≈ 175 µM) and 5.29 µg/mL (≈ 10.8 µM).
The corresponding values for `COCCN1C(=O)c2ccccc2C(C(=O)Nc2ccc(Cn3ccnc3)cc2)C1c1cccs1` (stereo not shown) [C215, N-(4-((1H-imidazol-1-yl)methyl)phenyl)-2-(2-methoxyethyl)-1-oxo-3-(thiophen-2-yl)-1,2,3,4-tetrahydroisoquinoline-4-carboxamide] are 52.9 µg/mL (≈ 109 µM) and 1.04 µg/mL (≈ 2.14 µM).
Regarding `COCCN1C(=O)c2ccccc2C(C(=O)Nc2ccc(CN3CCCCC3)cc2)C1c1cccs1` (stereo not shown) [C216, 2-(2-methoxyethyl)-1-oxo-N-(4-(piperidin-1-ylmethyl)phenyl)-3-(thiophen-2-yl)-1,2,3,4-tetrahydroisoquinoline-4-carboxamide], the CC50 at 72 h in series [1] worked out at 10.9 µg/mL (≈ 21.7 µM). In series [2], this compound gave an IC50 of 2.57 µg/mL (≈ 5.1 µM).
On the same counts, the results for `COCCN1C(=O)c2ccccc2C(C(=O)Nc2ccc(Cn3cncn3)cc2)C1c1cccs1` (stereo not shown) [C217, N-(4-((1H-1,2,4-triazol-1-yl)methyl)phenyl)-2-(2-methoxyethyl)-1-oxo-3-(thiophen-2-yl)-1,2,3,4-tetrahydroisoquinoline-4-carboxamide] are 83.7 µg/mL (≈ 172 µM) and 0.76 µg/mL (≈ 1.56 µM).

The values above are taken from patent publication US20110224208A1, “NOVEL INHIBITORS OF FLAVIVIRUS REPLICATION” (KATHOLIEKE UNIVERSITEIT LEUVEN, K.U. LEUVEN R&D, priority 2008, published 2011).
